Results taken from patent US10696691B2, “BACE1 inhibitors” (Hoffmann-La Roche Inc., priority 2015, dated 2020).

Experiments:
[1] = target: T1, BACE1 (Homo sapiens, UniProt P56817); assay: Cellular Aβ-lowering assay (Abeta 40 AlphaLISA, HEK293 APP cells); format: cell-based; conditions: 18-20 hrs incubation, Aβ 40 in culture supernatants, read-out: BACE1 cell act. Aβ40 IC50
T1 construct: endogenous in cells; host or cells: HEK293 APP cells
Description: Cellular Aβ-Lowering Assay:
The Abeta 40 AiphaLISA Assay can be used. The HEK293 APP cells were seeded in 96 well Microtiter plates in cell culture medium (Iscove's, plus 10% (v/v) fetal bovine serum, penicillin/streptomycin) to about 80% confluency and the compounds were added at a 3× concentration in ⅓ volume of culture medium (final DMSO concentration was kept at 1% v/v). After 18-20 hrs incubation at 37° C. and 5% CO2 in a humidified incubator, the culture supernatants were harvested for the determination of Aβ 40 concentrations using Perkin-Elmer Human Amyloid beta 1-40 (high specificity) Kit (Cat # AL275C).
In a Perkin-Elmer White Optiplate-384 (Cat #6007290), 2 ul culture supernatants were combined with 2 μl of a 10× AlphaLISA Anti-hABAcceptor beads+Biotinylated Antibody Anti-AD 1-40 Mix (50 μg/mL/5 nM). After 1 hour room temperature incubation, 16 μl of a 1.25× preparation of Streptavidin (SA) Donor beads (25 μg/mL) were added and incubated for 30 minutes in the Dark. Light Emission at 615 nm was then recorded using EnVision-Alpha Reader. Levels of Aβ 40 in the culture supernatants were calculated as percentage of maximum signal (cells treated with 1% DMSO without inhibitor). The IC50 values were calculated using the Excel XLfit software.

[2] = tested on: Aβ40; assay: Lowering of Aβ40 in brain of wild-type mice; format: in vivo; conditions: female C57Bl/6J mice, 30 mg/kg per os, 4 h, brain Aβ40 as percentage of the vehicle group; for response vs control in vivo at 30 mg/kg: Mus musculus, po, read-out: Aβ40 (wt mice, brain)
Description: Lowering of Aβ40 in Brain of Wild-Type Mice:
Animals and Housing Conditions.
Animals were maintained in a 12/12 h light/dark cycle, with lights starting at 6 a.m., and experiments were conducted during the light phase, Animal housing and experimental procedures were in line with ethical and legal guidelines and were authorized by local veterinary authorities.
Female C57Bl/6J mice were treated with a dose of 30 mg/kg of the compounds, 3-4 animals per treatment group. The test compound was dissolved in 5% EtOH, 10% Solutol, and was applied per os at 10 mL/kg. After 4 h, the animals were sacrificed and brain and plasma were collected. The brain was cut into halves and immediately frozen on dry ice. Brain was used for measurement of Aβ40 and plasma was used for determination of compound exposure. […] Brain tissue was homogenized in 2% DEA buffer in a Roche MagnaLyser (20″, 4000 rpm) and subsequently centrifuged for 1 h at 100000 g. DEA was reduced to 0.2% in 50 mM NaCl and one-half of the DEA lysate was passed over an Oasis Solid phase extraction plate (Waters; cat. no. 186000679), which had been activated with MeOH and equilibrated in dH2O (1 mL each). After washes in 10% and 30% MeOH (1 mL each), the Aβ-peptides were eluted in 0.8 mL of 2% NH4OH in 90% MeOH. The eluate was dried over a N2 flow, and the dried sample was reconstituted in 30 μL of AlphaLISA assay buffer. Aβ40 was determined by an AlphaLISA assay (Perkin-Elmer). In a white 96-well, half area microplate (Perkin-Elmer cat. no. 6005561), 20 μL of the reconstituted sample were mixed with 5 μL of biotinylated BAP-24 (specific for C-terminus of Aβ40) (Brockhaus, M.; Onmberg, J.; Rohrig, S.; Loetscher, H.; Wittenburg, N.; Baumeister, R.; Jacobsen, H.; Haass, C. Caspasemediated cleavage is not required for the activity of presenilins in amyloidogenesis and NOTCH signaling. NeuroReport 1998, 9, 1481-1486.) stock=4.4 mg/mL, f.c.5.5 μg/mL), and 5 μL 252Q6 acceptor beads (252Q6 antibody, Invitrogen AMB0062) had been previously conjugated with AlphaLISA Acceptor beads (Perkin-Elmer cat. no. 6772002); final dilution 1:500). The mix was incubated for 1 h at RT in the dark. Then 20 μL of Streptavin-coated Donor Beads (Perkin-Elmer cat. no. 6760002, final dilution 1:125) were added and this final mix was incubated in the dark for another 30 min at RT before RFU was measured in an AlphaScreen Reader (Perkin-Elmer Envision 2104). The value obtained for A40 in the treated animals was related to the value in the vehicle group and is given in %. Alternatively a commercial ELISA was used for Aβ40 determination (Wako ELISA: (“Human/Rat 3 Amyloid (40) ELISA kit Wako II”; cat nr. 294-64701) following the manufacture's instruction. Also here the Aβ-lowering efficacy was calculated as percentage of the vehicle group.

T1 sequence (P56817 46-501): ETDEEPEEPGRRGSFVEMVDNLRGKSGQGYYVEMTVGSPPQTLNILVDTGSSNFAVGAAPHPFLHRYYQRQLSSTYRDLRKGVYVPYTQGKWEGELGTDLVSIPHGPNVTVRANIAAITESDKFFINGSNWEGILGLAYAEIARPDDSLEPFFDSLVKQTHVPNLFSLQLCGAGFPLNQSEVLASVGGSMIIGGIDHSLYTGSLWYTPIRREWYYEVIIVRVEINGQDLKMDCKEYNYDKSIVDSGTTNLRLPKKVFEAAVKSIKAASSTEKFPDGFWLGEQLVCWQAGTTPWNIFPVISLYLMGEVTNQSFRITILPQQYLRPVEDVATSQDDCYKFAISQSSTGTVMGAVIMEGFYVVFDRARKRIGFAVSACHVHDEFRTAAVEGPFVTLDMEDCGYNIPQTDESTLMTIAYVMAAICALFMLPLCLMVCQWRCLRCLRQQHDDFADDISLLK

SMILES | IC50 [1] [nM] | response vs control in vivo at 30 mg/kg [2] [%] | Aβ40 (wt mice, brain) [2] [%]
CC1(C)C(N)=N[C@](C)(c2cc(NC(=O)c3ncc(OC(F)F)cc3Cl)ccc2F)[C@@H]2CCN=[S@@]21=O [Example 13AB, N-(3-((3aS,4R,8R)-6-amino-4,7,7-trimethyl-8-oxido-3,3a,4,7-tetrahydro-2H-isothiazolo[1,5-a][1,4]thiazin-4-yl)-4-fluorophenyl)-3-chloro-5-(difluoromethoxy)picolinamide] | 0.3 | 39 | 
CCOc1cnc(C(=O)Nc2ccc(F)c([C@@]3(C)N=C(N)C(C)(C)[S@@]4(=O)=NCC[C@@H]34)c2)cn1 [Example 27AB, N-(3-((3aS,4R,8R)-6-amino-4,7,7-trimethyl-8-oxido-3,3a,4,7-tetrahydro-2H-isothiazolo[1,5-a][1,4]thiazin-4-yl)-4-fluorophenyl)-5-ethoxypyrazine-2-carboxamide] | 0.4 | 9 | 
CCOc1ccc(C(=O)Nc2ccc(F)c([C@@]3(C)N=C(N)C(C)(C)[S@@]4(=O)=NCC[C@@H]34)c2)nc1 [Example 25AB, N-(3-((3aS,4R,8R)-6-amino-4,7,7-trimethyl-8-oxido-3,3a,4,7-tetrahydro-2H-isothiazolo[1,5-a][1,4]thiazin-4-yl)-4-fluorophenyl)-5-ethoxypicolinamide] | 0.5 | 40 | 
Cc1cc(C#N)cnc1C(=O)Nc1ccc(F)c([C@@]2(C)N=C(N)C(C)(C)[S@@]3(=O)=NCC[C@@H]23)c1 [Example 1AB, N-(3-((3aS,4R,8R)-6-amino-4,7,7-trimethyl-8-oxido-3,3a,4,7-tetrahydro-2H-isothiazolo[1,5-a][1,4]thiazin-4-yl)-4-fluorophenyl)-5-cyano-3-methylpicolinamide] | 0.09 | 14 | 
CC1(C)C(N)=N[C@](C)(c2cc(NC(=O)c3ccc(C#N)cc3Cl)ccc2F)[C@@H]2CCN=[S@@]21=O [Example 4AB, N-(3-((3aS,4R,8R)-6-amino-4,7,7-trimethyl-8-oxido-3,3a,4,7-tetrahydro-2H-isothiazolo[1,5-a][1,4]thiazin-4-yl)-4-fluorophenyl)-2-chloro-4-cyanobenzamide] | 13.1 | 102 | 
CC1(C)C(N)=N[C@](C)(c2cc(NC(=O)c3cnc(OCC(F)F)cn3)ccc2F)[C@@H]2CCN=[S@@]21=O [Example 7AB, N-(3-((3aS,4R,8R)-6-amino-4,7,7-trimethyl-8-oxido-3,3a,4,7-tetrahydro-2H-isothiazolo[1,5-a][1,4]thiazin-4-yl)-4-fluorophenyl)-5-(2,2-difluoroethoxy)pyrazine-2-carboxamide] | 0.4 | 42 | 
CC1(C)C(N)=N[C@](C)(c2cc(NC(=O)c3cnc(OC(F)F)cn3)ccc2F)[C@@H]2CCN=[S@@]21=O [Example 15AB, N-(3-((3aS,4R,8R)-6-amino-4,7,7-trimethyl-8-oxido-3,3a,4,7-tetrahydro-2H-isothiazolo[1,5-a][1,4]thiazin-4-yl)-4-fluorophenyl)-5-(difluoromethoxy)pyrazine-2-carboxamide] | 0.2 | 20 | 
CC1(C)C(N)=N[C@](C)(c2cc(NC(=O)c3ncc(Cl)cc3Cl)ccc2F)[C@@H]2CCN=[S@@]21=O [Example 3AB, N-(3-((3aS,4R,8R)-6-amino-4,7,7-trimethyl-8-oxido-3,3a,4,7-tetrahydro-2H-isothiazolo[1,5-a][1,4]thiazin-4-yl)-4-fluorophenyl)-3,5-dichloropicolinamide] | 1 | 49 | 
Cc1cc(OC(F)F)cnc1C(=O)Nc1ccc(F)c([C@@]2(C)N=C(N)C(C)(C)[S@@]3(=O)=NCC[C@@H]23)c1 [Example 11AB, N-(3-((3aS,4R,8R)-6-amino-4,7,7-trimethyl-8-oxido-3,3a,4,7-tetrahydro-2H-isothiazolo[1,5-a][1,4]thiazin-4-yl)-4-fluorophenyl)-5-(difluoromethoxy)-3-methylpicolinamide] | 0.2 |  | 
CC1(C)C(N)=N[C@](C)(c2cc(NC(=O)c3ncc(C#N)cc3Cl)ccc2F)[C@@H]2CCN=[S@@]21=O [Example 2AB, N-(3-((3aS,4R,8R)-6-amino-4,7,7-trimethyl-8-oxido-3,3a,4,7-tetrahydro-2H-isothiazolo[1,5-a][1,4]thiazin-4-yl)-4-fluorophenyl)-3-chloro-5-cyanopicolinamide] | 1 | 80 | 
COc1cnc(C(=O)Nc2ccc(F)c([C@@]3(C)N=C(N)C(C)(C)[S@@]4(=O)=NCC[C@@H]34)c2)cn1 [Example 14AB, N-(3-((3aS,4R,8R)-6-amino-4,7,7-trimethyl-8-oxido-3,3a,4,7-tetrahydro-2H-isothiazolo[1,5-a][1,4]thiazin-4-yl)-4-fluorophenyl)-5-methoxypyrazine-2-carboxamide] | 0.5 | 3 | 
CC1(C)C(N)=N[C@](C)(c2cc(NC(=O)c3ccc(OC(F)F)cn3)ccc2F)[C@@H]2CCN=[S@@]21=O [Example 5AB, N-(3-((3aS,4R,8R)-6-amino-4,7,7-trimethyl-8-oxido-3,3a,4,7-tetrahydro-2H-isothiazolo[1,5-a][1,4]thiazin-4-yl)-4-fluorophenyl)-5-(difluoromethoxy)picolinamide] | 0.6 |  | 
COc1cnc(C(=O)Nc2ccc(F)c([C@@]3(C)N=C(N)C(C)(C)[S@@]4(=O)=NCC[C@@H]34)c2)c(C)c1 [Example 26AB, N-(3-((3aS,4R,8R)-6-amino-4,7,7-trimethyl-8-oxido-3,3a,4,7-tetrahydro-2H-isothiazolo[1,5-a][1,4]thiazin-4-yl)-4-fluorophenyl)-5-methoxy-3-methylpicolinamide] | 0.6 | 11 | 
Cc1ncc(C(=O)Nc2ccc(F)c([C@@]3(C)N=C(N)C(C)(C)[S@@]4(=O)=NCC[C@@H]34)c2)cn1 [Example 21AB, N-(3-((3aS,4R,8R)-6-amino-4,7,7-trimethyl-8-oxido-3,3a,4,7-tetrahydro-2H-isothiazolo[1,5-a][1,4]thiazin-4-yl)-4-fluorophenyl)-2-methylpyrimidine-5-carboxamide] | 914 |  | 
CC1(C)C(N)=N[C@](C)(c2cc(NC(=O)c3ccc(OCC(F)F)cn3)ccc2F)[C@@H]2CCN=[S@@]21=O [Example 10AB, N-(3-((3aS,4R,8R)-6-amino-4,7,7-trimethyl-8-oxido-3,3a,4,7-tetrahydro-2H-isothiazolo[1,5-a][1,4]thiazin-4-yl)-4-fluorophenyl)-5-(2,2-difluoroethoxy)picolinamide] | 2.2 |  | 
CC1(C)C(N)=N[C@](C)(c2cc(NC(=O)c3cnc(OCC(F)(F)C(F)F)cn3)ccc2F)[C@@H]2CCN=[S@@]21=O [Example 22AB, N-(3-((3aS,4R,8R)-6-amino-4,7,7-trimethyl-8-oxido-3,3a,4,7-tetrahydro-2H-isothiazolo[1,5-a][1,4]thiazin-4-yl)-4-fluorophenyl)-5-(2,2,3,3-tetrafluoropropoxy)pyrazine-2-carboxamide] | 0.2 |  | 51
